Assay results: patent US9302999B2, “Substituted triazoles as herbicides” (E. I. DU PONT DE NEMOURS AND COMPANY, priority 2012, dated 2016)

Legend:
Format in all cases: in vivo
[1] = test system: barnyardgrass (Echinochloa crus-galli); assay: Test A pre-/postemergence: barnyardgrass; settings: for Barnyardgrass plant response rating: Postemergence; for Plant response rating, Barnyardgrass: Preemergence
How it was run: (§1)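 Each species received preemergence soil-directed spraying and, at the same time, postemergence treatment of seedlings 2–10 cm tall. Formulation: non-phytotoxic solvent mixture including surfactant. Response assessed visually about ten days on, relative to untreated controls, 0–100 scale.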

[2] = test system: crabgrass, large (large crabgrass, Digitaria sanguinalis); assay: Test A pre-/postemergence: crabgrass, large; settings: for Crabgrass, Large plant response rating: Postemergence; for Plant response rating, Crabgrass, Large: Preemergence
How it was run: as §1

[3] = test system: foxtail, giant (giant foxtail, Setaria faberii); assay: Test A pre-/postemergence: foxtail, giant; settings: for Foxtail, Giant plant response rating: Postemergence; for Plant response rating, Foxtail, Giant: Preemergence
How it was run: as §1

[4] = test system: morningglory (Ipomoea spp.); assay: Test A pre-/postemergence: morningglory; settings: for Morningglory plant response rating: Postemergence; for Plant response rating, Morningglory: Preemergence
How it was run: as §1

[5] = test system: pigweed (Amaranthus retroflexus); assay: Test A pre-/postemergence: pigweed; settings: for Pigweed plant response rating: Postemergence; for Plant response rating, Pigweed: Preemergence
How it was run: as §1

[6] = test system: velvetleaf (Abutilon theophrasti); assay: Test A pre-/postemergence: velvetleaf; settings: for Velvetleaf plant response rating: Postemergence; for Plant response rating, Velvetleaf: Preemergence
How it was run: as §1

[7] = test system: wheat (Triticum aestivum); assay: Test A pre-/postemergence: wheat; settings: for Wheat plant response rating: Postemergence; for Plant response rating, Wheat: Preemergence
How it was run: as §1

corn (Zea mays) = assay: Test A pre-/postemergence: corn; settings: for Corn plant response rating: Postemergence; for Plant response rating, Corn: Preemergence
How it was run: as §1

rice (Oryza sativa) = assay: Test C flooded paddy test: rice; settings: scale 0 to 100 (0 no effect, 100 complete control)
How it was run: (§2)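 Visual ratings from 0 (no effect) to 100 (complete control), made against untreated controls 13 to 15 days after treatment, express plant response. Compounds went directly into paddy water over 2-leaf stage plants in pots flooded to 3 cm.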

[8] = test system: sedge, umbrella (small-flower umbrella sedge, Cyperus difformis); assay: Test C flooded paddy test: sedge, umbrella; settings: scale 0 to 100 (0 no effect, 100 complete control)
How it was run: as §2

[9] = test system: ducksalad (Heteranthera limosa); assay: Test C flooded paddy test: ducksalad; settings: scale 0 to 100 (0 no effect, 100 complete control)
How it was run: as §2

[10] = test system: barnyardgrass (Echinochloa crus-galli); assay: Test C flooded paddy test: barnyardgrass; settings: scale 0 to 100 (0 no effect, 100 complete control)
How it was run: as §2

[11] = 125 g ai/ha, 0 to 100 scale, 0 is no effect, 100 is complete control
[12] = 500 g ai/ha, visual rating on 0 to 100 scale (0 no effect, 100 complete control), approximately ten days
[13] = 125 g ai/ha, 0 to 100 scale (0 no effect, 100 complete control)
[14] = 500 g ai/ha, 0 to 100 scale, 0 is no effect, 100 is complete control
[15] = Flood (flooded paddy test), 62 g ai/ha, visual rating after 13 to 15 days
[16] = Flood (flooded paddy test), 250 g ai/ha, visual rating after 13 to 15 days
[17] = Flood (flooded paddy test), 125 g ai/ha, visual rating after 13 to 15 days

Cc1nn(-c2ccc(C(F)(F)F)cc2)nc1Cc1cnn(CC(F)(F)F)c1 [Compound 51]
Barnyardgrass plant response rating [1, 11]: 0
Barnyardgrass plant response rating [1, 12]: 10
Plant response rating, Barnyardgrass [1, 13]: 0
Plant response rating, Barnyardgrass [1, 14]: 0
Crabgrass, Large plant response rating [2, 11]: 0
Crabgrass, Large plant response rating [2, 12]: 10
Plant response rating, Crabgrass, Large [2, 13]: 0
Plant response rating, Crabgrass, Large [2, 14]: 0
Foxtail, Giant plant response rating [3, 11]: 0
Foxtail, Giant plant response rating [3, 12]: 10
Plant response rating, Foxtail, Giant [3, 13]: 0
Plant response rating, Foxtail, Giant [3, 14]: 10
Morningglory plant response rating [4, 11]: 0
Morningglory plant response rating [4, 12]: 10
Plant response rating, Morningglory [4, 13]: 0
Plant response rating, Morningglory [4, 14]: 0
Pigweed plant response rating [5, 11]: 10
Pigweed plant response rating [5, 12]: 60
Plant response rating, Pigweed [5, 13]: 0
Plant response rating, Pigweed [5, 14]: 0
Velvetleaf plant response rating [6, 11]: 0
Velvetleaf plant response rating [6, 12]: 10
Plant response rating, Velvetleaf [6, 13]: 0
Plant response rating, Velvetleaf [6, 14]: 0
Wheat plant response rating [7, 11]: 0
Wheat plant response rating [7, 12]: 0
Plant response rating, Wheat [7, 13]: 0
Plant response rating, Wheat [7, 14]: 0
Corn plant response rating (corn (Zea mays); [11]): 0
Corn plant response rating (corn (Zea mays); [12]): 10
Plant response rating, Corn (corn (Zea mays); [13]): 0
Plant response rating, Corn (corn (Zea mays); [14]): 0
Plant response rating, Rice (rice (Oryza sativa); [15]): 0
Plant response rating, Rice (rice (Oryza sativa); [16]): 0
Plant response rating, Sedge, Umbrella [8, 15]: 0
Plant response rating, Sedge, Umbrella [8, 16]: 0
Plant response rating, Ducksalad [9, 15]: 0
Plant response rating, Ducksalad [9, 16]: 0
Plant response rating, Barnyardgrass [10, 15]: 0
Plant response rating, Barnyardgrass [10, 16]: 0

Cc1nn(-c2ccc(Cl)cc2)nc1Oc1ccnc(C(F)(F)F)c1 [Compound 52]
Barnyardgrass plant response rating [1, 11]: 20
Barnyardgrass plant response rating [1, 12]: 70
Plant response rating, Barnyardgrass [1, 13]: 20
Plant response rating, Barnyardgrass [1, 14]: 90
Crabgrass, Large plant response rating [2, 11]: 50
Crabgrass, Large plant response rating [2, 12]: 100
Plant response rating, Crabgrass, Large [2, 13]: 100
Plant response rating, Crabgrass, Large [2, 14]: 100
Foxtail, Giant plant response rating [3, 11]: 50
Foxtail, Giant plant response rating [3, 12]: 100
Plant response rating, Foxtail, Giant [3, 13]: 100
Plant response rating, Foxtail, Giant [3, 14]: 100
Morningglory plant response rating [4, 11]: 40
Morningglory plant response rating [4, 12]: 100
Plant response rating, Morningglory [4, 13]: 10
Plant response rating, Morningglory [4, 14]: 20
Pigweed plant response rating [5, 11]: 100
Pigweed plant response rating [5, 12]: 100
Plant response rating, Pigweed [5, 13]: 100
Velvetleaf plant response rating [6, 11]: 30
Velvetleaf plant response rating [6, 12]: 100
Plant response rating, Velvetleaf [6, 13]: 0
Plant response rating, Velvetleaf [6, 14]: 10
Wheat plant response rating [7, 11]: 10
Wheat plant response rating [7, 12]: 20
Plant response rating, Wheat [7, 13]: 0
Plant response rating, Wheat [7, 14]: 0
Corn plant response rating (corn (Zea mays); [11]): 10
Corn plant response rating (corn (Zea mays); [12]): 20
Plant response rating, Corn (corn (Zea mays); [13]): 0
Plant response rating, Corn (corn (Zea mays); [14]): 10
Plant response rating, Rice (rice (Oryza sativa); [15]): 15
Plant response rating, Rice (rice (Oryza sativa); [16]): 40
Plant response rating, Sedge, Umbrella [8, 15]: 65
Plant response rating, Sedge, Umbrella [8, 16]: 85
Plant response rating, Ducksalad [9, 15]: 80
Plant response rating, Ducksalad [9, 16]: 95
Plant response rating, Barnyardgrass [10, 15]: 40
Plant response rating, Barnyardgrass [10, 16]: 75

Cc1nn(-c2cccc(C(F)(F)F)n2)nc1C(=O)c1cccc(C(F)(F)F)c1 [Compound 57]
Barnyardgrass plant response rating [1, 11]: 0
Barnyardgrass plant response rating [1, 12]: 0
Plant response rating, Barnyardgrass [1, 13]: 0
Plant response rating, Barnyardgrass [1, 14]: 0
Crabgrass, Large plant response rating [2, 11]: 0
Crabgrass, Large plant response rating [2, 12]: 10
Plant response rating, Crabgrass, Large [2, 13]: 0
Plant response rating, Crabgrass, Large [2, 14]: 0
Foxtail, Giant plant response rating [3, 11]: 0
Foxtail, Giant plant response rating [3, 12]: 0
Plant response rating, Foxtail, Giant [3, 13]: 0
Plant response rating, Foxtail, Giant [3, 14]: 0
Morningglory plant response rating [4, 11]: 0
Morningglory plant response rating [4, 12]: 0
Plant response rating, Morningglory [4, 13]: 0
Plant response rating, Morningglory [4, 14]: 0
Pigweed plant response rating [5, 11]: 0
Pigweed plant response rating [5, 12]: 10
Plant response rating, Pigweed [5, 13]: 0
Plant response rating, Pigweed [5, 14]: 0
Velvetleaf plant response rating [6, 11]: 0
Velvetleaf plant response rating [6, 12]: 0
Plant response rating, Velvetleaf [6, 13]: 0
Plant response rating, Velvetleaf [6, 14]: 0
Wheat plant response rating [7, 11]: 0
Wheat plant response rating [7, 12]: 0
Plant response rating, Wheat [7, 13]: 0
Plant response rating, Wheat [7, 14]: 0
Corn plant response rating (corn (Zea mays); [11]): 0
Corn plant response rating (corn (Zea mays); [12]): 0
Plant response rating, Corn (corn (Zea mays); [13]): 0
Plant response rating, Corn (corn (Zea mays); [14]): 0
Plant response rating, Rice (rice (Oryza sativa); [15]): 0
Plant response rating, Rice (rice (Oryza sativa); [17]): 0
Plant response rating, Rice (rice (Oryza sativa); [16]): 0
Plant response rating, Rice (rice (Oryza sativa); Flood, 31 g ai/ha): 0
Plant response rating, Sedge, Umbrella [8, 15]: 0
Plant response rating, Sedge, Umbrella [8, 17]: 0
Plant response rating, Sedge, Umbrella [8, 16]: 0
Plant response rating, Sedge, Umbrella ([8]; Flood, 31 g ai/ha): 0
Plant response rating, Ducksalad [9, 15]: 0
Plant response rating, Ducksalad [9, 17]: 0
Plant response rating, Ducksalad [9, 16]: 0
Plant response rating, Ducksalad ([9]; Flood, 31 g ai/ha): 0
Plant response rating, Barnyardgrass [10, 15]: 0
Plant response rating, Barnyardgrass [10, 17]: 0
Plant response rating, Barnyardgrass [10, 16]: 0
Plant response rating, Barnyardgrass ([10]; Flood, 31 g ai/ha): 0
